From US20250296942A1, “Phosphonate-Based Coordination Complexes and Methods of Preparation and Use Thereof” (University of Puerto Rico, priority 2021, published 2025)

Tests used:
[1] = Hydroxyapatite (HA) binding assay of ZOLE and nano-Ca@ZOLE
Experimental: Hydroxyapatite (HA) binding assay: For the binding assay of nano-Ca@ZOLE, 20 mg of hydroxyapatite (HA) were exposed to 3 mL of a nano-Ca@ZOLE in PBS solution (0.5 mg/mL), for 0-11 days at 37° C. As control groups, nano-Ca@ZOLE and HA, both in PBS, were employed. As a comparative method, the binding assay for ZOLE “as received” was performed employing the same parameters as for the nanocrystals. For the experimental groups (HA-nano-Ca@ZOLE and HA-ZOLE), collection was performed in duplicate. Samples were collected each day for 11 consecutive days. After each time point, supernatant was collected and centrifuged (1,500 rpm, 8 min). Absorbance measurements were performed at 208 nm (λmax) to determine the percentage of ZOLE and nano-Ca@ZOLE bound to HA. Solid samples of HA, HA-ZOLE, and HA-nano-Ca@ZOLE were characterized by EDS.
The ability of nano-Ca@ZOLE to bind under simulated physiological conditions to the main constituent of the bone microenvironment, hydroxyapatite (HA), was probed through a binding assay. The binding to HA was determined by monitoring the decrease in the ZOLE concentration of the supernatant using absorption measurements (λmax=208 nm).

[2] = system: human breast cancer MDA-MB-231 cell line; assay: AlamarBlue cytotoxicity, ZOLE and nano-Ca@ZOLE, MDA-MB-231; assay type: cell-based; details: for IC50: Homo sapiens
Experimental: (§1) Cell culture methods: The MDA-MB-231 cell line was cultured in DMEM, 1% Pen-Strep, and 10% FBS at 37° C. in 5% CO2. The hFOB 1.19 cell line was cultured in 1:1 DMEM:F-12, 0.3 mg/mL G418, and 10% FBS at 34° C. in 5% CO2. Cell passages were performed weekly at 80% of cell confluency, and media was exchanged twice a week.
(§2) Cell treatments: Both cell lines were treated with ZOLE (control) and nano-Ca@ZOLE (experimental). First, to determine the half-maximal inhibitory concentration (IC50) two-fold serial dilutions of ZOLE (0-200 μM) were prepared. Both cell lines (MDA-MB-231 and hFOB 1.19) were seeded in 96 well plates at 2.5×10^5 cell/mL. The cells were incubated for 24 h at 37° C. (MDA-MB-231) and 34° C. (hFOB 1.19), respectively. After an initial incubation period, both cell lines were treated with 100 μL of the ZOLE solutions previously prepared, and incubation was performed for 24, 48, and 72 h at the respective incubation temperatures. For both cell lines, media (MDA-MB-231: DMEM, Pen-Strep and hFOB 1.19: DMEM, F-12, G418) were used with control groups. AlamarBlue® assay was utilized to determine cell proliferation; for this, 10% of AlamarBlue® solution in PBS was prepared. Finally, media was removed from the 96 well plates, 100 μL of 10% AlamarBlue® solution was added, and the cells were incubated for 4 h at the conditions previously set forth herein. After the AlamarBlue® assay, fluorescence (λexc=560 nm, m=590 nm) was evaluated employing an Infinite M200 PRO Tecan Microplate Reader. Live cells were assessed comparing viability of the control group (100%) with cells treated with the ZOLE solutions. The nonlinear regression method using Graph Pad Prism 8 was applied to fit the dose-response curves (% cell live vs concentration) and determined the IC50 values for ZOLE.
(§3) The percentage of relative cell live (% RCL) for ZOLE (control) and nano-Ca@ZOLE (experimental) were investigated at selected concentrations (1.9, 3.8, 7.5, and 15 μM) in both cell lines. Treatments at these concentrations were carried out at 24, 48, and 72 h for ZOLE and nano-Ca@ZOLE. The cell seeding and AlamarBlue® assay were completed as described above for IC50 determination in both cell lines. Graph Pad Prism 8 was utilized to plot the % RCL found at concentrations of 1.9, 3.8, 7.5, and 15 μM after 24, 48, and 72 h of treatment. All experiments were performed in triplicates and the data was statistically treated using mean, standard deviation, and the coefficient of variation percentage (% CV).
In this Example, the human breast cancer MDA-MB-231 and the osteoblast-like hFOB 1.19 cell lines were selected to assess cytotoxicity effects of nano-Ca@ZOLE nanocrystals. […] While, the immortalized human fetal hFOB 1.19 cell line is a homogeneous model that allows the study of osteoblast differentiation, these cells were employed to imitate the normal human bone microenvironment. To determine the IC50 values against MDA-MB-231 and hFOB 1.19 cell lines, concentrations of 0-200 μM of ZOLE were employed.

[3] = system: normal osteoblast-like hFOB 1.19 cell line; assay: AlamarBlue cytotoxicity, ZOLE and nano-Ca@ZOLE, hFOB 1.19; assay type: cell-based, human; details: for IC50: Homo sapiens
Experimental: as §1, §2, §3
In this Example, the human breast cancer MDA-MB-231 and the osteoblast-like hFOB 1.19 cell lines were selected to assess cytotoxicity effects of nano-Ca@ZOLE nanocrystals. […]

[4] = Dissolution of ZOLE and ZOLE-Ca form II in FaSSGF; assay type: physicochemical
Experimental: For ZOLE and ZOLE-Ca form II, dissolution measurements were performed in fasted-state simulated gastric fluid (FaSSGF). […] Absorbance measurements were performed on an Agilent Technologies Cary Series UV-Vis Spectrophotometer, Cary 100 UV-Vis model; using the UV Cary Scan software version v.20.0.470. All measurements were performed with a 400-200 nm scan.
(§4) Dissolution assays employed a maximum concentration of 0.05 mg/mL of ZOLE, which corresponded to the clinically utilized dosage of these BP.
To further investigate if the ZOLE-based BPCCs presented pH-dependent degradation, dissolution of ZOLE-Ca Form II in FaSSGF was performed.

[5] = Dissolution of ZOLE and ZOLE-based BPCCs in PBS (UV-Vis 208 nm); assay type: physicochemical
Experimental: Rate measurements were recorded for the reagent grade ZOLE, ZOLE-Ca forms I and II, ZOLE-Mg forms I and II, ZOLE-Zn forms I and II in PBS, against a reagent blank. […] Absorbance measurements were performed on an Agilent Technologies Cary Series UV-Vis Spectrophotometer, Cary 100 UV-Vis model; using the UV Cary Scan software version v.20.0.470. All measurements were performed with a 400-200 nm scan.
Dissolution of ZOLE-based BPCCs was compared to that of ZOLE (active ingredient of Reclast@), to assess the structural stability of these materials in PBS and FaSSGF.
as §4

For `O=P(O)(O)C(O)(Cn1ccnc1)P(=O)(O)O` [ZOLE, zoledronic acid], the “time to reach maximum binding to HA” value ([1]; PBS pH 7.4) was 8 days, the “maximum binding to HA” value ([1]; PBS pH 7.4, 37 °C, 0-11 days) was 82% and the “bound to HA” value ([1]; PBS pH 7.4, 37 °C, 1 day (24 h)) was 15%. The “% RCL (relative cell live)” value ([2]; 1.9 μM, time not stated) was ~100%, the “% RCL” value ([2]; 3.8 μM, time not stated) was ~100% and the “% RCL” value ([2]; 15 μM, 48 h) was 80±2%. For the same compound, the “% RCL” value ([2]; 15 μM, 72 h) was 58±2%, the IC50 ([2]; 24 h) was > 200 µM and the IC50 ([2]; 48 h) was > 200 µM. For the same compound, the IC50 ([2]; 72 h) was 35 µM, the “% RCL / cell death” value ([3]; 1.9-15 μM, 24, 48, 72 h) was “no significant cell death” and the IC50 ([3]; 24 h) was > 200 µM. The IC50 ([3]; 48 h) was 86 ± 3 µM, the IC50 ([3]; 72 h) was 49 ± 4 µM and the “time to reach maximum dissolution” value ([4]; FaSSGF pH 1.6) was 3 h. The “dissolution / equilibrium solubility (maximum ZOLE released)” value ([4]; FaSSGF pH 1.6, 37 °C) was 100%, the “time to reach maximum dissolution” value ([5]; PBS pH 7.4) was 30 min and the “dissolution / equilibrium solubility (maximum ZOLE released)” value ([5]; PBS pH 7.4, 37 °C) was 100%.
